Test results from ChEMBL document CHEMBL5625218, “An overview of limonoid synthetic derivatives as promising bioactive molecules” (Eur J Med Chem, 2023).
Values after ≈ are worked out from the molar mass of the structure shown. One block for each compound: values may come before it.

Experiments:
Tobacco mosaic virus [1] = experiment: Antiviral activity against TMV assessed as inactivation effect by measuring inhibition rate at 0.5 mg/ml measured after 72 hrs relative to control; type: functional; set-up: scale not given: the % may be the effect or the level left
Tobacco mosaic virus [2] = experiment: Antiviral activity against TMV assessed as protection effect by measuring inhibition rate at 0.5 mg/ml measured after 72 hrs relative to control; type: functional; set-up: scale not given: the % may be the effect or the level left
Tobacco mosaic virus [3] = experiment: Antiviral activity against TMV assessed as curative effect by measuring inhibition rate at 0.5 mg/ml measured after 72 hrs relative to control; type: functional; set-up: scale not given: the % may be the effect or the level left
Staphylococcus aureus [4] = experiment: Antibacterial activity against Staphylococcus aureus ATCC 25923 assessed as reduction in bacterial growth incubated for 24 hrs by CLSI based Mueller-Hinton broth assay; type: functional
Staphylococcus aureus [5] = experiment: Antibacterial activity against methicillin-resistant Staphylococcus aureus 15012406 assessed as reduction in bacterial growth incubated for 24 hrs by CLSI based Mueller-Hinton broth assay; type: functional
Staphylococcus aureus [6] = experiment: Antibacterial activity against methicillin-resistant Staphylococcus aureus 15019301 assessed as reduction in bacterial growth incubated for 24 hrs by CLSI based Mueller-Hinton broth assay; type: functional
Staphylococcus aureus [7] = experiment: Antibacterial activity against methicillin-resistant Staphylococcus aureus 17045463 assessed as reduction in bacterial growth incubated for 24 hrs by CLSI based Mueller-Hinton broth assay; type: functional
Staphylococcus aureus [8] = experiment: Antibacterial activity against methicillin-resistant Staphylococcus aureus 18032913 assessed as reduction in bacterial growth incubated for 24 hrs by CLSI based Mueller-Hinton broth assay; type: functional
Mus musculus [9] = experiment: Antinociceptive activity in ip dosed mouse assessed as inhibition of acetic acid-induced abdominal constrictions by writhing test at 70 mg/ml relative to control; type: functional; set-up: scale not given: the % may be the effect or the level left
Mus musculus [10] = experiment: Anti-inflammatory activity in mouse model of xylene-induced auricle edema assessed as inhibition of ear swelling at 70 mg/ml, IG pre-treated for 1 hr followed by xylene addition and measured after 1 hr relative to control; type: functional; set-up: scale not given: the % may be the effect or the level left; conditions: time 2 hrs
HCT-116 = experiment: Anticancer activity against human HCT-116 cells assessed as reduction in cell viability incubated for 72 hrs by MTT assay; type: functional, cell-based; conditions: HCT-116, 72 h
ES-2 = experiment: Anticancer activity against human ES2 cells assessed as reduction in cell viability incubated for 72 hrs by Alamar Blue assay; type: functional, cell-based; conditions: ES-2, 72 h
A549 = experiment: Anticancer activity against human A549 cells assessed as reduction in cell viability incubated for 72 hrs by Alamar Blue assay; type: functional, cell-based; conditions: A549, 72 h
HOS = experiment: Anticancer activity against human HOS cells assessed as reduction in cell viability incubated for 72 hrs by Alamar Blue assay; type: functional, cell-based
MDA-MB-231 = experiment: Anticancer activity against human MDA-MB-231 cells assessed as reduction in cell viability incubated for 72 hrs by Alamar Blue assay; type: functional, cell-based; conditions: MDA-MB-231, 72 h
A 172 = experiment: Anticancer activity against human A-172 cells assessed as reduction in cell viability incubated for 72 hrs by Alamar Blue assay; type: functional, cell-based; conditions: A 172, 72 h
HepG2 = experiment: Anticancer activity against human HepG2 cells assessed as reduction in cell viability incubated for 72 hrs by Alamar Blue assay; type: functional, cell-based; conditions: HepG2, 72 h
Plasmodium falciparum = experiment: Antiplasmodial activity against Plasmodium falciparum W2 infected in human erythrocytes assessed as reduction in parasite growth incubated for 48 hrs by YOYO-1 dye based flow cytometric analysis; type: functional, organism-based; conditions: W2, 48 h
Diutina rugosa = experiment: Antimicrobial activity Candida rugosa DSM 2031 assessed as reduction in microbial growth incubated for 24 hrs by broth micro dilution method; type: functional
Candida parapsilosis = experiment: Antimicrobial activity Candida parapsilosis ATCC 22019 assessed as reduction in microbial growth incubated for 24 hrs by broth micro dilution method; type: functional; conditions: Lodderomyces parapsilosis
Candida albicans = experiment: Antimicrobial activity against Candida albicans ATCC 10231 assessed as reduction in microbial growth incubated for 24 hrs by broth micro dilution method; type: functional
Candida tropicalis = experiment: Antimicrobial activity against Candida tropicalis ATCC 18803 assessed as reduction in microbial growth incubated for 24 hrs by broth micro dilution method; type: functional
Cryptococcus neoformans = experiment: Antimicrobial activity Cryptococcus neoformans ATCC 28952 assessed as reduction in microbial growth incubated for 24 hrs by broth micro dilution method; type: functional
[11] = Antimicrobial activity Cryptococcus gattii VGI ATCC 2601 assessed as reduction in microbial growth incubated for 24 hrs by broth micro dilution method; type: functional
[12] = target: Voltage-gated inwardly rectifying potassium channel KCNH2 (Homo sapiens, UniProt Q12809); experiment: Inhibition of hERG; type: toxicity
Sequence of Voltage-gated inwardly rectifying potassium channel KCNH2 (Q12809 whole entry): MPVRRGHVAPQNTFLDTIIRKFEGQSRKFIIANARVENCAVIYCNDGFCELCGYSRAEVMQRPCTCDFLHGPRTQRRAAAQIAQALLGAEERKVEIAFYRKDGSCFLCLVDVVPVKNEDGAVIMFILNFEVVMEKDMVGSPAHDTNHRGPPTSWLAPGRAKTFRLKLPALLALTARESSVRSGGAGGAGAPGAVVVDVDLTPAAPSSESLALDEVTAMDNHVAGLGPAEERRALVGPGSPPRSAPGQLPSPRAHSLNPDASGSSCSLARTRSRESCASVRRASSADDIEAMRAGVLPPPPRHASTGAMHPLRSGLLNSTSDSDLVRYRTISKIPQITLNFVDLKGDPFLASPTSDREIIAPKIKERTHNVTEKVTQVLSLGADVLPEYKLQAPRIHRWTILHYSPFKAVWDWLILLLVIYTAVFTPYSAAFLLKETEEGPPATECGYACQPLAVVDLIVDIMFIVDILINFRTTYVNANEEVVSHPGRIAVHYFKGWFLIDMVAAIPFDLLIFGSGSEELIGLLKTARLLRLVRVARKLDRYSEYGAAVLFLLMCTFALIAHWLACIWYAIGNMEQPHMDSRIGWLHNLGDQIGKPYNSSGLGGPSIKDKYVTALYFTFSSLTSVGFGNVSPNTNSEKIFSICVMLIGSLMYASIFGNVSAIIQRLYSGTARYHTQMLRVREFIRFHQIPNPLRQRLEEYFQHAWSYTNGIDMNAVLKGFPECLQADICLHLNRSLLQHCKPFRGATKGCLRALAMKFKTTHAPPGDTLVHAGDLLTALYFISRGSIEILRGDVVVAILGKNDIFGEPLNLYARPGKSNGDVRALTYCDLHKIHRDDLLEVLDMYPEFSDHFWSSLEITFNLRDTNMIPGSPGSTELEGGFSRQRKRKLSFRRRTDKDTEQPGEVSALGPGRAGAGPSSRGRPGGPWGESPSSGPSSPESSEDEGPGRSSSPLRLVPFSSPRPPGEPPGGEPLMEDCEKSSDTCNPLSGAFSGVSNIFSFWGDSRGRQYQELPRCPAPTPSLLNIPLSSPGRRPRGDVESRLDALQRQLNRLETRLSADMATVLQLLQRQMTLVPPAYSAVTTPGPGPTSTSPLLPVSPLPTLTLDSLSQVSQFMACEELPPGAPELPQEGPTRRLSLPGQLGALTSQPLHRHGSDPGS

SMILES: CC1(C)O[C@H]2CC(=O)OC[C@]23[C@H]2CC[C@@]4(C)[C@H](c5ccoc5)OC(=O)[C@H]5O[C@]54[C@]2(C)OC(=O)C[C@@H]13
Activity (Tobacco mosaic virus [1]): 44.8%
Activity (Tobacco mosaic virus [2]): 23.6%
Activity (Tobacco mosaic virus [3]): 13.1%

SMILES: CC(=O)O[C@@H](c1ccoc1)[C@@H]1CCC[C@H](C)C1=O
MIC50 (Staphylococcus aureus [4]): 12 µg/mL (≈ 47.9 µM)
MIC50 (Staphylococcus aureus [5]): 128 µg/mL (≈ 511 µM)
MIC50 (Staphylococcus aureus [6]): 64 µg/mL (≈ 256 µM)
MIC50 (Staphylococcus aureus [7]): 128 µg/mL (≈ 511 µM)
MIC50 (Staphylococcus aureus [8]): 64 µg/mL (≈ 256 µM)

SMILES: CC1(C)O[C@H]2CC(=O)OC[C@]23[C@H]2CC[C@@]4(C)[C@H](c5ccoc5)OC(=O)[C@H]5O[C@]54[C@]2(C)[C@@H](OC(=O)C/C=C/c2ccccc2)C[C@@H]13
Activity (Tobacco mosaic virus [1]): 65.7%
Activity (Tobacco mosaic virus [2]): 29.3%
Activity (Tobacco mosaic virus [3]): 41.7%

SMILES: CC1(C)O[C@H]2CC(=O)OC[C@]23[C@H]2CC[C@@]4(C)[C@H](c5ccoc5)OC(=O)[C@H]5O[C@]54[C@]2(C)[C@@H](NC(=O)CCN2CCOCC2)C[C@@H]13.Cl
Activity (Mus musculus [9]): 57.35%
Activity (Mus musculus [10]): 58.15%

IC50 (HCT-116): 1.6 µM
IC50 (A549): 2.59 µM
IC50 (MDA-MB-231): 0.64 µM
IC50 (HepG2): 7.1 µM
SMILES: C#CCO[C@H]1C=C(C(C)C)[C@]2(CCCC(=O)O2)[C@H]2CC[C@]3(C)C(=CC(=O)O[C@H]3c3ccoc3)[C@]12C
IC50 (ES-2): 0.58 µM
IC50 (HOS): 1.61 µM
IC50 (A 172): 0.78 µM

SMILES: C[C@H]1CCC[C@@H]([C@H](O)c2ccoc2)C1=O
MIC50 (Staphylococcus aureus [4]): 512 µg/mL (≈ 2460 µM)
MIC50 (Staphylococcus aureus [5]): 512 µg/mL (≈ 2460 µM)
MIC50 (Staphylococcus aureus [6]): 512 µg/mL (≈ 2460 µM)

SMILES: COC(=O)C[C@H](OC(C)=O)[C@]1(C)[C@H]2CC[C@@]3(C)[C@H](c4ccoc4)OC(=O)[C@H]4O[C@]43[C@]2(C)[C@H](OC(C)=O)C[C@H]1C(C)(C)O
IC50 (Plasmodium falciparum): 18.3 µM

SMILES: CC1(C)OC(=O)C=C[C@]2(C)[C@H]3CC[C@@]4(C)[C@H](c5ccoc5)OC(=O)[C@H]5O[C@]54[C@]3(C)OC(=O)C[C@@H]12
Activity (Tobacco mosaic virus [1]): 56.5%
Activity (Tobacco mosaic virus [2]): 30%
Activity (Tobacco mosaic virus [3]): 17.5%

MIC (Diutina rugosa): 34 µM
MIC (Candida parapsilosis): 34 µM
MIC (Candida albicans): 34 µM
MIC (Candida tropicalis): 34 µM
MIC (Cryptococcus neoformans): 34 µM
MIC [11]: 34 µM
SMILES: CC1(C)O[C@@H](CC(=O)NCc2cn(Cc3ccc(Br)cc3)nn2)[C@@]2(CO)[C@H]1CC(=O)[C@@]1(C)C3=CC(=O)O[C@@H](c4ccoc4)[C@]3(C)CC[C@@H]12

SMILES: CC1(C)O[C@H]2CC(=O)OC[C@@]23[C@H]1C[C@H](NC(=O)CCN1CCOCC1)[C@@]1(C)C2=CC(=O)O[C@@H](c4ccoc4)[C@]2(C)CC[C@@H]13.Cl
Activity (Mus musculus [9]): 54.3%
Activity (Mus musculus [10]): 24.04%

SMILES: CC(=O)O[C@H]1CC(=O)OC(C)(C)[C@@H]2C[C@@H](OC(C)=O)[C@]3(C)[C@H](CC[C@@]4(C)[C@H](c5ccoc5)OC(=O)[C@H]5O[C@@]534)[C@@]12C
IC50 (Plasmodium falciparum): 16.5 µM

SMILES: CC(=O)O[C@H](c1ccoc1)[C@@H]1CCC[C@H](C)C1=O
MIC50 (Staphylococcus aureus [4]): 12 µg/mL (≈ 47.9 µM)
MIC50 (Staphylococcus aureus [5]): 128 µg/mL (≈ 511 µM)
MIC50 (Staphylococcus aureus [6]): 64 µg/mL (≈ 256 µM)
MIC50 (Staphylococcus aureus [7]): 128 µg/mL (≈ 511 µM)
MIC50 (Staphylococcus aureus [8]): 64 µg/mL (≈ 256 µM)

SMILES: C[C@H]1CCC[C@@H]([C@@H](O)c2ccoc2)C1=O
MIC50 (Staphylococcus aureus [4]): 512 µg/mL (≈ 2460 µM)
MIC50 (Staphylococcus aureus [5]): 512 µg/mL (≈ 2460 µM)
MIC50 (Staphylococcus aureus [6]): 512 µg/mL (≈ 2460 µM)

SMILES: CC1(C)O[C@H]2CC(=O)OC[C@]23[C@H]2CC[C@@]4(C)[C@H](c5coc(C(=O)CCCCN6CCOCC6)c5)OC(=O)[C@H]5O[C@]54[C@]2(C)C(=O)C[C@@H]13
IC50 [12]: > 100 µM

IC50 (HCT-116): 3.28 µM
IC50 (A549): 7.62 µM
IC50 (MDA-MB-231): 5.53 µM
IC50 (HepG2): 8.45 µM
SMILES: CC1(C)O[C@H]2CC(=O)OC[C@]23[C@H]2CC[C@]4(C)C(=CC(=O)O[C@H]4c4coc(C(=O)CCl)c4)[C@]2(C)OC(=O)C[C@@H]13
IC50 (ES-2): 3.65 µM
IC50 (HOS): 3.88 µM
IC50 (A 172): 1.71 µM

SMILES: CC1(C)O[C@H]2CC(=O)OC[C@]23[C@H]2CC[C@@]4(C)[C@H](c5ccoc5)OC(=O)[C@H]5O[C@]54[C@]2(C)C(=O)C[C@@H]13 [LIMONIN]
Activity (Tobacco mosaic virus [1]): 41.9%
Activity (Tobacco mosaic virus [2]): 27.4%
Activity (Tobacco mosaic virus [3]): 5.8%

SMILES: CC1(C)OC(=O)C=C[C@]2(C)[C@H]3CC[C@@]4(C)[C@H](c5ccoc5)OC(=O)[C@H]5O[C@]54[C@]3(C)C(=O)C[C@@H]12 [OBACUNONE]
Activity (Tobacco mosaic virus [1]): 35.2%
Activity (Tobacco mosaic virus [2]): 21.5%
Activity (Tobacco mosaic virus [3]): 7.7%
